From the NIST ThermoML archive (doi:10.1016/j.fluid.2014.07.004)

Legend:
[1] = xn = mol fraction of the nth substance listed; conditions: 298.15 K, 101 kPa, Liquid, Vibrating tube method
[2] = refractive index (Na D-line) (dimensionless); xn = mol fraction of the nth substance listed; conditions: 298.15 K, 101 kPa, Liquid, Standard Abbe refractometry
[3] = 298.15 K; 101.33 kPa; Liquid; Vibrating tube method

COc1ccccc1 [anisole] + COC(=O)OC
Conditions | mass density, [1] [kg/m3] | refractive index, [2]
x1 = 0.0502 | 1058.1 | 1.3759
x1 = 0.0997 | 1053.35 | 1.3847
x1 = 0.1995 | 1044.2 | 1.402
x1 = 0.2996 | 1035.64 | 1.4178
x1 = 0.3999 | 1027.62 | 1.4334
x1 = 0.4998 | 1020.13 | 1.4485
x1 = 0.5999 | 1013.15 | 1.4629
x1 = 0.6999 | 1006.64 | 1.4766
x1 = 0.8 | 1000.51 | 1.4898
x1 = 0.9003 | 994.65 | 1.5027
x1 = 0.9503 | 991.82 | 1.5087

COc1ccccc1 [anisole] + CO
Conditions | mass density, [1] [kg/m3] | refractive index, [2]
x2 = 0.0498 | 985.45 | 1.5105
x2 = 0.1003 | 981.36 | 1.5064
x2 = 0.2003 | 972.63 | 1.4974
x2 = 0.3001 | 962.6 | 1.4865
x2 = 0.4002 | 950.84 | 1.4749
x2 = 0.4997 | 936.67 | 1.4609
x2 = 0.5999 | 919.46 | 1.445
x2 = 0.7001 | 898.19 | 1.4238
x2 = 0.8 | 871.05 | 1.398
x2 = 0.8999 | 835.51 | 1.3658
x2 = 0.95 | 813.27 | 1.3488

CO [methanol]
Conditions | mass density [kg/m3]
[3] | 786.59

COc1ccccc1 [anisole]
Conditions | mass density [kg/m3]
[3] | 989.42

COC(=O)OC [dimethyl carbonate]
Conditions | mass density [kg/m3]
[3] | 1063.26

COC(=O)OC [dimethyl carbonate] + CO
Conditions | mass density, [1] [kg/m3] | refractive index, [2]
x2 = 0.0496 | 1056.77 | 1.3658
x2 = 0.1 | 1049.84 | 1.365
x2 = 0.1997 | 1034.4 | 1.3627
x2 = 0.3 | 1016.89 | 1.3607
x2 = 0.3999 | 997.15 | 1.3578
x2 = 0.5 | 974.61 | 1.3543
x2 = 0.5999 | 948.66 | 1.3506
x2 = 0.6999 | 918.36 | 1.3463
x2 = 0.7999 | 882.55 | 1.341
x2 = 0.9 | 839.54 | 1.3346
x2 = 0.9499 | 814.64 | 1.331

Oc1ccccc1 [phenol]
Conditions | mass density [kg/m3]
[3] | 1058.51
